From article PMC11017395 (ACS Medicinal Chemistry Letters, 2024) come the findings set out here.

Broadly, the solubility is how much of the substance goes into solution per volume.

In data set [1] the test system is immature-stage gametocytes (PfiGc), NF54-PfS16-GFP-Luc. As to the kind of experiment: Antigametocytic luciferase reporter assay, immature/early stage. The following applies: Plasmodium falciparum; for inhibition at 1 µM / inhibition at 5 µM: NF54, 48 h; for inhibition at 1 µM: read-out: Early gametocytes (EG) % activity, 1.0 µM; for inhibition at 5 µM: read-out: Early gametocytes (EG) % activity, 5.0 µM. For orientation: Reporter assays use an easily measured gene product as a stand-in for the process of interest.

Data set [2] is described as follows: Turbidimetric kinetic aqueous solubility. It counts as physicochemical. The following applies: turbidimetric method, PBS pH 7.4, read-out: Sol. (solubility). The method, then: Aqueous Solubility. Solubility was measured from amorphous solid forms of the compounds using the turbidimetric method. Following the dissolution of test compound in DMSO to make a 10 mM stock solution, a pre-dilution plate was prepared by taking from each stock solution and serially […]
pre-dilution solution, secondary dilutions of the compounds in both DMSO and 0.01M pH 7.4 PBS were prepared in triplicate on a second 96-well plate. Wells in columns 1-6 would contain […]
(§1) nominal concentrations as those in DMSO. The final volume of solvent in each assay plate was 200 µl, prepared by pipetting 4 µl each of solution from the pre-dilution plate to the corresponding well into both DMSO and PBS (both 196 µL). This ensures that the final concentration of DMSO in the […]
(§2) Similarly, a second secondary plate containing
(§3) Different concentrations in DMSO were prepared as controls to determine false turbidimetric absorbance readings arising from the compounds in solution absorbing incident radiation at the test wavelength. Following preparation, the assay plate was covered and left to equilibrate for 2 h at 25 °C. Afterwards, UV-vis absorbance readings from the plate were measured at 620 nm using a SpectraMax 340PC384 microplate reader. Plots of corrected absorbance against compound concentration were computed for a graphical representation of the data using MS Excel. Reserpine and hydrocortisone were used as positive and negative controls, respectively.
(§4) In vitro Antiplasmodium Assay. The compounds were tested using the modified [3H]-hypoxanthine incorporation assay, as previously reported.1
(§5) In vitro Cytotoxicity Assay. Compounds were screened against Chinese Hamster Ovarian (CHO) mammalian cell lines, using the 3-(4,5-dimethylthiazol-2-yl)-2,5-diphenyltetrazoliumbromide […]
It was prepared to 2 mg/ml in distilled water, while the stock solutions of test compounds were prepared to 20 mg/ml in DMSO (100%), […]
lowest being 0.001 µg/ml. […]
of cell suspension in each well and developed afterward by adding 25 µl of sterile MTT (Thermo

For data set [3], the system named is drug sensitive (NF54) strain of Pf. As to the kind of experiment: In vitro antiplasmodium assay, [3H]-hypoxanthine incorporation, NF54. The following applies: for IC50: mean n ≥ 2. It counts as cell-based, Plasmodium falciparum. On the procedure: All target compounds were evaluated for their antiplasmodium activity against the drug sensitive (NF54) strain of Pf and for turbidimetric kinetic solubility.
Aqueous Solubility. Solubility was measured from amorphous solid forms of the compounds using the turbidimetric method. Following the dissolution of test compound in DMSO to make a 10 mM stock solution, a pre-dilution plate was prepared by taking from each stock solution and serially diluting in triplicate to yield concentrations from 0.25 mM to 10.0 mM on a 96 well plate. From each pre-dilution solution, secondary dilutions of the compounds in both DMSO and 0.01M pH 7.4 PBS were prepared in triplicate on a second 96-well plate. Wells in columns 1-6 would contain […]
as §1, §2, §3, §4, §5

Data set [4] deals with PfK1 multidrug resistant strain. Description: microbe, parasite or virus in culture. It counts as cell-based, Plasmodium falciparum.
The test system of data set [5] is late-stage gametocytes (PfLGc), NF54-PfS16-GFP-Luc. As to the kind of experiment: Antigametocytic luciferase reporter assay, late stage. The settings on record: Plasmodium falciparum; for inhibition at 1 µM / inhibition at 5 µM: NF54, 48 h; for inhibition at 1 µM: read-out: Late gametocytes (LG) % activity, 1.0 µM; for inhibition at 5 µM: read-out: Late gametocytes (LG) % activity, 5.0 µM. The text has this: (§6) In vitro Antigametocytic Activity Assay. Gametocytes were produced as per the method reported by Reader and co-workers.3 The luciferase reporter assay was used to enable accurate, reliable and quantifiable investigations of the stage-specific action of gametocytocidal compounds for the early and late gametocyte marker cell line NF54-PfS16-GFP-Luc.
(§7) (representing >90% of either early stage II/III or mature/late stage IV/V gametocytes, respectively). […]
(§8) h drug pressure in a gas chamber (90% N 2, 5% O 2, and 5% CO 2) at 37 °C. Luciferase activity was determined in 30 µl parasite lysates by adding 30 µl luciferin substrate (Promega Luciferase Assay System) at room temperature and detection of resultant bioluminescence at an integration constant of 10s with the GloMax® Explorer Detection System with Instinct® Software. […]
(§9) µM) and internal project specific controls were included as controls. The dual point screens were performed as technical triplicates for a single biological assay.

The test system of data set [6] is late-stages (IV – V) gametocytes. Description: microbe, parasite or virus in culture. The settings on record: Plasmodium falciparum.
Description: as §6, §7, §8, §9

Another data set concerns P. berghei. The following applies: in vivo, po.
A further data set addresses T1, hERG K+ channel (Homo sapiens, UniProt Q12809).
T1 construct: host or cells: CHO K1 (ATCC), stably expressing hERG
Description: QPatch hERG assay. It is filed as cell-based. The following applies: CHO K1 cells stably expressing hERG. In general terms: The patch-clamp technique gives a direct electrical read-out from membranes.

In brackets after ≈: the same amount, converted by molar mass. Like-named read-outs stand apart in the source and are kept apart here.

T1 sequence (Q12809 whole entry): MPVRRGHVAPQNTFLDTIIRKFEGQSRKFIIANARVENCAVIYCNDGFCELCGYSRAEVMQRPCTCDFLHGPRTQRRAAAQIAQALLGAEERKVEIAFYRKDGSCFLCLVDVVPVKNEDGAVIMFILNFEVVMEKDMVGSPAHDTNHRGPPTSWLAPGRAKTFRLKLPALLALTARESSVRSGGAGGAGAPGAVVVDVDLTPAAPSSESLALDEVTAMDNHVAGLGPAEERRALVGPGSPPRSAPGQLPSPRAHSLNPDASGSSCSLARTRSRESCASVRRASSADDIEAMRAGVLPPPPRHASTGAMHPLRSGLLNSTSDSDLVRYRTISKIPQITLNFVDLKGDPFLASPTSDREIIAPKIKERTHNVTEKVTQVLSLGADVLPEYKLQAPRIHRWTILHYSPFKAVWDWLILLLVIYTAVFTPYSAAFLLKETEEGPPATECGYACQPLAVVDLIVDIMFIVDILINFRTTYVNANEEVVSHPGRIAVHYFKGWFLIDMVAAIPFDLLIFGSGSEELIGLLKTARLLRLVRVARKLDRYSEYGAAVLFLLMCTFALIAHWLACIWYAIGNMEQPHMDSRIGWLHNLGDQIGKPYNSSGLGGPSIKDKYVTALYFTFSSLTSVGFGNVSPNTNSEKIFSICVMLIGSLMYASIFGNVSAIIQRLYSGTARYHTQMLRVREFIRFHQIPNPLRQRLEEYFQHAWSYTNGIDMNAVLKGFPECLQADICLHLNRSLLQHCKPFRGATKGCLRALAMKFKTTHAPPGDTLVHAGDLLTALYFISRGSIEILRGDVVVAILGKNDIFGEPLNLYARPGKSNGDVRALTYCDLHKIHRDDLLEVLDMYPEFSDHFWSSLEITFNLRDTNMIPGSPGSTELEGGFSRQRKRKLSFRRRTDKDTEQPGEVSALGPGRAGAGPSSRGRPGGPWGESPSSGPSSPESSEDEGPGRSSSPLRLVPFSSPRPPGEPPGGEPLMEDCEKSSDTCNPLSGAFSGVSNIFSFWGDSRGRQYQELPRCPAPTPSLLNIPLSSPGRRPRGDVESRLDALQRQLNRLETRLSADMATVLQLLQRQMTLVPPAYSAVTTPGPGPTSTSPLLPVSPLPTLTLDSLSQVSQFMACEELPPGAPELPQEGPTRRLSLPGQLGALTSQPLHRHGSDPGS
Description for P. berghei: In vivo Antiplasmodium Assay (Swiss TPH).
described,5 with the modification that mice (n = 3) were infected with a GFP -transfected P. berghei
ANKA strain (donated by A. P. Waters and C. J. Janse, Leiden University, The Netherlands), and
parasitemia was determined using standard flow cytometry techniques. The detection limit was 1
parasite in 1000 erythrocytes (that is, 0.1%). The activity was calculated as the difference between
the mean percent parasitemia for the control and treated groups expressed as a percent relative to the
control group. Compounds were dissolved or suspended in a vehicle consisting of 70% Tween -80
and 30% ethanol, followed by a 10 -fold dilution in H 2O and oral administration as four consecutive
Blood samples for the quadruple -dose regimens
The survival time in days was also recorded up to 30
days after infection. A compound was considered curative if the animal survived to day 30 after
infection with no detectable parasites by slide reading .
Description for hERG K+ channel: In vitro Liver-stage Assay (P. berghei-sporozoite Infection). In a 24-well plate, HepG2 was seeded
employed as reference drugs. Negative control wells received medium only.
cells were trypsinized and the percentage (%) of infected cells was determined by flow cytometry
(BD LSRFortessa) using at least 10000 events. For determining host cell viability, in a 96-well plate,
h of incubation, a volume 100 µl of medium containing drugs was added and further incubated at 37
°C. Negative control wells received medium only and positive wells received gentian violet. After
Drugs were tested in five different concentrations, each one in

As for `CN(C)c1ccc2nc3ccc(N(C)C)cc3[s+]c2c1` [methylene blue, reference compound], the IC50 in data set [1] (NF54, read-out: gametocytes IC50, immature-stage (PfiGc / PfEG), stages I–III, n = 1, technical triplicate) was determined as 0.2 µM.

For `COC(=O)[C@H]1[C@H]2C[C@@H]3c4[nH]c5cc(OC)ccc5c4CCN3C[C@H]2C[C@@H](OC(=O)c2cc(OC)c(OC)c(OC)c2)[C@@H]1OC` [reserpine, reference compound], the solubility at 2 h in data set [2] was less than 10 µM.

As for `F[C@H]1CN(CCc2ccc(-c3noc(C(F)(F)F)n3)cc2)CC[C@@H]1Nc1nc2ccccc2[nH]1` [Compound 8], in data set [2], the solubility at 2 h was found to be 100 µM (≈ 47.4 µg/mL). Further, the “fold improvement of antiplasmodium activity over 7” value in data set [3] (PfNF54) came out at 1.5 fold. For the same compound, the IC50 in data set [3] (Plasmodium falciparum, NF54, read-out: PfIC50 NF54, sensitive NF54 strain) was 140 to 650 nM; in data set [3] (read-out: PfIC50 NF54, sensitive NF54 strain), 147 nM; in data set [4] (Plasmodium falciparum, K1, read-out: PfIC50 K1), 384 nM. Also, in data set [4], the “RI (resistance index = PfK1 IC50/PfNF54 IC50)” value is recorded as 2.61.

Regarding `COc1ccc(CCN2CCC(Nc3nc4ccccc4n3Cc3ccc(F)cc3)CC2)cc1` [AST, astemizole, reference compound], the inhibition at 1 µM in data set [5] worked out at 0%; in data set [1], 5%; in data set [6] (read-out: Late gametocytes (LG) % activity, 1.0 µM), 13%. Moreover, the inhibition at 5 µM is 11% in data set [5]; 61% in data set [1]; 52% in data set [6] (read-out: Late gametocytes (LG) % activity, 5.0 µM).

As to `CCN(CC)CCCC(C)Nc1ccnc2cc(Cl)ccc12` (stereo not drawn) [CQ, chloroquine], in the data set on P. berghei, the “MSD (mean survival days)” value amounted to 24 days.

As for `FC1CN(CCc2ccc(-c3noc(C(F)(F)F)n3)cc2)CCC1Nc1nc2ccccc2[nH]1` (stereo not drawn) [Compound 7], the IC50 at 4 min against hERG K+ channel (pH 7.4, QPatch, CHO K1 cells expressing hERG) was 980 nM. On hERG K+ channel (pH 7.4, read-out: hERG SI (selectivity index = hERG IC50/PfNF54 IC50)), the selectivity ratio at 4 min turned out to be 4.47. In addition, the inhibition at 1 µM turned out to be 10.9 ± 2.3% in data set [5] and 0% in data set [1]. The inhibition at 5 µM is 37.8 ± 0.5% in data set [5] and 27.6 ± 0.8% in data set [1]. For the same compound, the IC50 in data set [5] (NF54, read-out: gametocytes IC50, late-stage (PfLGc / PfLG)) worked out at 8 µM; in data set [1] (NF54, read-out: gametocytes IC50, immature-stage (PfiGc / PfEG)), 8.16 µM. In addition, the solubility at 2 h in data set [2] (PBS buffer) was 120 µM (≈ 56.9 µg/mL).
